Data taken from patent US11739068B2, “Polymorphs of N-[(3-fluoro-4-methoxypyridin-2-yl)methyl]-3-(methoxymethyl)-1-({4-[(2-oxopyridin-1-yl)methyl]phenyl}methyl)pyrazole-4-carboxamide and salts thereof” (KALVISTA PHARMACEUTICALS LIMITED, priority 2016, dated 2023).

Columns and labels:
Format in all cases: physicochemical
Slurry studies = settings: 72 hrs; for XRPD of solid after slurry versus starting form: 90/10 IPA/water, ambient temperature
Procedure: Form 1 (20 mg) was suspended in 90/10 IPA/water (200 μL or […]) and shaken at ambient temperature for 72 hrs. The supernatant was evaporated rather than filtered due to the small volume and the resulting solid was examined by XRPD (FIG. 6).
The supernatant was evaporated rather than filtered due to the small volume and the resulting solid was examined by XRPD (FIG. 28).
The supernatant was evaporated rather than filtered due to the small volume and the resulting solid was examined by XRPD (FIG. 34).
The supernatant was evaporated rather than filtered due to the small volume and the resulting solid was examined by XRPD (FIG. 40).

[1] = Gravimetric Vapour Sorption (GVS)
Procedure: Gravimetric Vapour Sorption (GVS) data were collected using the following method: Approximately 10 mg of sample was placed into a wire-mesh vapour sorption balance pan and loaded into an ‘IgaSorp’ vapour sorption balance (Hiden Analytical Instruments). The sample was then dried by maintaining a 0% humidity environment until no further weight change was recorded. Subsequently, the sample was then subjected to a ramping profile from 0-90% RH at 10% RH increments, maintaining the sample at each step until equilibration had been attained (99% step completion). Upon reaching equilibration, the % RH within the apparatus was ramped to the next step and the equilibration procedure repeated. After completion of the sorption cycle, the sample was then dried using the same procedure. The weight change during the sorption/desorption cycles were then monitored, allowing for the hygroscopic nature of the sample to be determined.

[2] = Visual aqueous solubility
Procedure: Form 1 (10 mg) was weighed into a glass vial and water was added in 100 μL portions up to 3 mL then 1 mL portions thereafter. Solubility was assessed visually following a brief period of equilibration.
Form 18 (10 mg) was weighed into a glass vial and water was added in 100 μL portions up to 3 mL then 1 mL portions thereafter. Solubility was assessed visually following a brief period of equilibration.
Form 8 (10 mg) was weighed into a glass vial and water was added in 100 μL portions up to 3 mL then 1 mL portions thereafter. Solubility was assessed visually following a brief period of equilibration.
Form 15 (10 mg) was weighed into a glass vial and water was added in 100 μL portions up to 3 mL then 1 mL portions thereafter. Solubility was assessed visually following a brief period of equilibration.
Form 16 (10 mg) was weighed into a glass vial and water was added in 100 μL portions up to 3 mL then 1 mL portions thereafter. Solubility was assessed visually following a brief period of equilibration.

| Compound | XRPD of solid after slurry versus starting form (Slurry studies) | %-Wt (dry basis) ([1]; adsorption, about 0 %-RH) | %-Wt (dry basis) ([1]; adsorption, about 10 %-RH) | %-Wt (dry basis) ([1]; adsorption, about 20 %-RH) | %-Wt (dry basis) ([1]; adsorption, about 30 %-RH) | %-Wt (dry basis) ([1]; adsorption, about 40 %-RH) | %-Wt (dry basis) ([1]; adsorption, about 50 %-RH) | %-Wt (dry basis) ([1]; adsorption, about 60 %-RH) | %-Wt (dry basis) ([1]; adsorption, about 70 %-RH) | %-Wt (dry basis) ([1]; adsorption, about 80 %-RH) | %-Wt (dry basis) ([1]; adsorption, about 90 %-RH) | %-Wt (dry basis) ([1]; desorption, about 0 %-RH) | %-Wt (dry basis) ([1]; desorption, about 5 %-RH) | %-Wt (dry basis) ([1]; desorption, about 15 %-RH) | %-Wt (dry basis) ([1]; desorption, about 25 %-RH) | %-Wt (dry basis) ([1]; desorption, about 35 %-RH) | %-Wt (dry basis) ([1]; desorption, about 45 %-RH) | %-Wt (dry basis) ([1]; desorption, about 55 %-RH) | %-Wt (dry basis) ([1]; desorption, about 65 %-RH) | %-Wt (dry basis) ([1]; desorption, about 75 %-RH) | other results |
| --- | --- | --- | --- | --- | --- | --- | --- | --- | --- | --- | --- | --- | --- | --- | --- | --- | --- | --- | --- | --- | --- |
| COCc1nn(Cc2ccc(Cn3ccccc3=O)cc2)cc1C(=O)NCc1nccc(OC)c1F.Cl [Form 18, N-[(3-fluoro-4-methoxypyridin-2-yl)methyl]-3-(methoxymethyl)-1-({4-[(2-oxopyridin-1-yl)methyl]phenyl}methyl)pyrazole-4-carboxamide hydrochloride] | different to that of Form 18 | 0.000338% | 0.2364% | 0.3723% | 0.5037% | 0.6618% | 0.9246% | 9.109% | 9.603% | 13.9262% | 66.83% | 0.35% | 2.227% | 3.448% | 4.993% | 7.125% | 9.624% | 12.7659% | 17.34% | 24.5% | %-Wt (dry basis) ([1]; desorption, about 85 %-RH): 40.16% |
| N-[(3-fluoro-4-methoxypyridin-2-yl)methyl]-3-(methoxymethyl)-1-({4-[(2-oxopyridin-1-yl)methyl]phenyl}methyl)pyrazole-4-carboxamide edisylate [Form 15] | no differences in X-ray pattern |  |  |  |  |  |  |  |  |  |  |  |  |  |  |  |  |  |  |  | Result of water slurry (Slurry studies; 20 mg in deionised water (200 μL)): complete dissolution of the sample; Aqueous solubility ([2]; water, assessed visually): ~100 mg/mL; Aqueous solubility, repeat using less water ([2]; water, dissolved in 0.05 mL): > 200 mg/mL |
| N-[(3-fluoro-4-methoxypyridin-2-yl)methyl]-3-(methoxymethyl)-1-({4-[(2-oxopyridin-1-yl)methyl]phenyl}methyl)pyrazole-4-carboxamide edisylate [Form 16] |  | 1.612% | 2.367% | 2.626% | 2.834% | 3.045% | 3.351% | 7.516% | 9.935% | 15.98% | 94.26% | 0.00047% | 2.866% | 4.495% | 6.541% | 9.564% | 12.94% | 17.21% | 23.22% | 33.16% | %-Wt (dry basis) ([1]; desorption, about 85 %-RH): 57.4% |
| COCc1nn(Cc2ccc(Cn3ccccc3=O)cc2)cc1C(=O)NCc1nccc(OC)c1F.O=S(=O)(O)O [Form 8, N-[(3-fluoro-4-methoxypyridin-2-yl)methyl]-3-(methoxymethyl)-1-({4-[(2-oxopyridin-1-yl)methyl]phenyl}methyl)pyrazole-4-carboxamide sulfate] | no change in the X-ray pattern | 0.03946% | 0.4404% | 0.6163% | 0.7771% | 0.6383% | 0.8735% | 1.214% | 2.0577% | 3.99% | 14.16% | 0.000552% | 0.07837% | 0.2289% | 0.3947% | 0.2459% | 0.5639% | 0.9496% | 1.643% | 3.436% | %-Wt (dry basis) ([1]; desorption, about 85 %-RH): 6.295%; Increase in water content by GVS (hygroscopicity, in words) ([1]; up to 70% relative humidity): only a relatively gradual increase in water content; Aqueous solubility (in words) [2]: excellent aqueous solubility; solubility ([2]; water, thermodynamic from solid): ~100 mg/mL |
